According to US8853245B2, “Orally bioavailable dabigatran prodrugs for the treatment of diseases” (Dritte Patentportfolio Beteiligungsgesellschaft mbH & Co. KG, priority 2011, dated 2014):
Converted amounts (≈) assume the structure as drawn. “Also recorded” adds a separate entry of the source. Read-outs that look alike come from different tables or passages of the source.

Assays:
[1] = Solubility in phosphate buffer at various pH values; type: physicochemical; details: pH 2.0, preliminary test runs
[2] = Stability (ester hydrolysis) in human plasma; type: in vitro ADME; details: 0.2 mM, 37° C., up to 150 min, listed as dabigatran amidoxime succinic acid ester (1)
Protocol: (§1) Further analyses were conducted with human and murine plasma. 900 μl of the plasma was mixed with 100 μl of a 2 mM solution of dabigatran amidoxime succinic acid ester (1). The final concentration of dabigatran amidoxime succinic acid ester (1) was thus 0.2 mM. The samples were incubated at 37° C. in a shaking water bath and samples were taken after 0, 15, 30, 45, 60, 90, 120 and 150 min. For this purpose, 100 μl was drawn in each case and mixed with 100 μl acetonitrile. The samples were shaken, centrifuged for 5 min and the supernatant was measured via HPLC. The results are illustrated in FIGS. 2 and 3.

[3] = set-up: species or system rats; details: rat, in vivo
Protocol: Dabigatran was administered intravenously to 20 rats in a concentration of 10 mg/kg. Dabigatran amidoxime succinic acid ester (1), dabigatran amidoxime (2), and dabigatran etexilate were administered to 10 rats each in a concentration of 50 mg/kg as a suspension with Arabic gum (10% m/V) per gavage. 100 mM of potassium phosphate buffer of pH 9.0 was used with the dabigatran amidoxime succinic acid ester (1) in preparing the suspension so as to prevent premature cleavage of the succinyl ester in the acidic environment of the stomach. In addition, 3 rats were given dabigatran at a dosage of 50 mg/kg per gavage in order to determine the oral bioavailability of the active form itself.
After the intravenous administration, plasma samples were taken after 5, 10, 25, 50, 100, 200, and 400 min, respectively 30, 60, 90, 120, 240, 360, and 480 min after oral administration. For this purpose, 300 μl of whole blood was drawn using an insulin syringe and transferred into EDTA-coated CB 300 microvettes (Sarstedt, Nümbrecht). After each withdrawal, the sample was rinsed with 100 μl of 0.9% saline solution respectively with heparin solution (250 I.E./ml) at an interval of 60 min. The blood sample was briefly shaken and placed on ice until centrifugation (4° C.; 14,000 RPM; 10 min). The samples were stored further at −80° C.
The plasma samples were defrosted at room temperature. 5 μl of 1N HCl was prepared in each case and 55 μl of the plasma samples added by pipetting. The samples were subsequently shaken for 45 min in order to cleave the existing glucuronides. The plasma proteins were then precipitated with 55 μl of methanol and shaken for a further 30 min. The samples were centrifuged at 10,000 RPM for 15 min and the supernatant was transferred into HPLC vials. 10 μl was used in each case for the HPCL determinations.
Calibrations and analyses for recovering the dabigatran were performed in a phosphate buffer of pH 7.4, murine plasma respectively, so as to quantitatively evaluate the plasma samples.
The bioavailability of the different dabigatran prodrugs was calculated by means of the PK Solutions 2.0™ program using the plasma concentrations. Furthermore, the plasma half-life t1/2, the time of maximum plasma level tmax, as well as the maximum plasma concentration cmax were calculated.

[4] = biological target: albumin (Homo sapiens, UniProt P02768); assay: Plasma protein binding (4% albumin solution, ultrafiltration); type: in vitro ADME; details: 10, 25 and 50 μM, 15 min at 37° C.
Protocol: The plasma protein binding was determined at three different concentrations (10, 25, and 50 μM). A 4% albumin solution was used as the protein solutions. 50 μl of a 10 times concentrated substance solution were in each case pipetted to 450 μl of the protein solution. Incubation ensued over 15 min in a shaking water bath at 37° C. Subsequently, the samples were transferred into ultrafiltration units (Vivaspin 500, 10 kDa cut off) and centrifuged for 15 min at 10,000 RPM. The filtrate was analyzed by HPLC. Additionally, a control which was not mixed with protein nor centrifuged was carried out for each concentration. A further control without protein addition which, however, was centrifuged by the filtration unit served to validate the methodology.

[5] = Stability (ester hydrolysis) in murine plasma; type: in vitro ADME; details: 0.2 mM, 37° C., up to 150 min, listed as dabigatran amidoxime succinic acid ester (1)
Protocol: as §1

[6] = Stability analysis at various pH values (phosphate buffer, HPLC); type: physicochemical; details: acidic medium (<pH 6)
Protocol: A 0.2 mM solution of dabigatran amidoxime succinic acid ester (1) was prepared in 50 mM of a potassium phosphate buffer for the stability analyses. The examination took place at pH values of 2.0, 4.0, 6.3, 7.4 and 9.0. One sample was taken and immediately analyzed by HPLC every 30 min over a period of 360 min.

[7] = Solubility in phosphate buffer at various pH values; type: physicochemical; details: shaken 10 min; for solubility at 10 min: aqueous buffer, thermodynamic from solid
Protocol: An amount of the dabigatran amidoxime succinic acid ester (1) which is insoluble in 150 μl was dissolved in 50 mM of a phosphate buffer (pH 6.3, pH 7.4, respectively pH 9.0) and shaken for 10 min. Solubility was not determined at the 4.0 and 2.0 pH values due to the rapid hydrolysis of the succinyl ester at acidic pH values. 3 N HCl, respectively 10% KOH, was used to adjust the pH value. After the 10 min period, the undissolved portion was removed by centrifugation (13,000 RPM, 10 min) and the samples were immediately measured by HPLC. The evaluation of the solubility ensued via a calibration of dabigatran amidoxime succinic acid ester (1) (Table 1). Dabigatran etexilate and dabigatran amidoxime (2) were examined by comparison so as to be able to better judge the solubility as compared to previously described derivatives. Solubilities were determined analogously to the method described for compound (1).

[8] = Dabigatran in organ samples (liver and kidney) after oral administration; type: in vivo; details: rats, oral 50 mg/kg, 8 hours after administration
Protocol: Slaughter ensued by guillotine decapitation 8 hours after the drug administration. The organs were subsequently removed. All organs were cleaned and frozen in 2-methylbutane cooled in dry ice. Liver, kidney, lung, spleen, heart, and brain were removed.
The organs were defrosted at room temperature and weighed. Depending on the respective organ, differing amounts of the tissues were prepared. About 1000 mg were used in case of the liver samples; about 500 mg in case of the kidney samples. Liver and kidney were examined since both organs participate in the activation of the prodrug and increased concentrations of dabigatran can therefore occur in same. Other organs are irrelevant for the bioactivation and were therefore not examined.
The organ samples (liver and kidney) were minced by means of a potter. For this purpose, each of the weighed tissues were minced with 1 ml aqua bidest for 5 min. The potter vessel was subsequently rinsed in each case with 1 ml of aqua bidest. The samples were transferred into reaction vessels and the same volume of acetonitrile was added in order to precipitate proteins. The samples were shaken for 45 min and subsequently centrifuged at 12,000 RPM for 15 min. […]
The solubilizing of the samples ensued with 400 μl of a mixture of methanol/aqua bidest (50/50). […] The concentration of dabigatran was determined from the supernatant by means of HPLC.

[9] = etexilate data from the literature; cited from earlier work

Chain of albumin (P02768 25-609, species assumed): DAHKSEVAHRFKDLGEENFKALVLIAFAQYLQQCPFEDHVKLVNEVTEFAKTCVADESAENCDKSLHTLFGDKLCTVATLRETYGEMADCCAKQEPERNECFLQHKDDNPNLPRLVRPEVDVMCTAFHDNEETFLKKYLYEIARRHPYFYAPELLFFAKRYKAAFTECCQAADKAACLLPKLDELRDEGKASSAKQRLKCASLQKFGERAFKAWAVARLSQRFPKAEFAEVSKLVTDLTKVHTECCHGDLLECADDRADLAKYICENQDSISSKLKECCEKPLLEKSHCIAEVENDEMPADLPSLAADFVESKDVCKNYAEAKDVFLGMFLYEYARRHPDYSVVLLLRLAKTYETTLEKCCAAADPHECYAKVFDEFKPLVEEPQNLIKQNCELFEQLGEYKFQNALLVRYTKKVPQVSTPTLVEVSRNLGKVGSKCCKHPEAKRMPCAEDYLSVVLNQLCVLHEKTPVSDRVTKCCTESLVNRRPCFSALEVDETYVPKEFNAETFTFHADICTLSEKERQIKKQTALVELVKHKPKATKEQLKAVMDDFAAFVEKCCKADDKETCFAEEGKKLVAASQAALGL

| bioavailability [3] | Cmax ([3]; po, 50 mg/kg) [nM] | maximum plasma concentrations (range) ([3]; po, 50 mg/kg) [µM] | period of detectable dabigatran plasma levels ([3]; po, 50 mg/kg) [min] | prodrug itself in plasma ([3]; po, 50 mg/kg) | t1/2 ([3]; po, 50 mg/kg) | time at which maximum plasma concentrations were reached (range) ([3]; po, 50 mg/kg) [min] | tmax ([3]; po, 50 mg/kg) | solubility at 10 min ([7]; pH 6.3, 50 mM phosphate buffer) [µM] | solubility at 10 min ([7]; pH 7.4, 50 mM phosphate buffer) [µM] | solubility at 10 min ([7]; pH 9.0, 50 mM phosphate buffer) [µM] | SMILES | other results |
| --- | --- | --- | --- | --- | --- | --- | --- | --- | --- | --- | --- | --- |
| 5.5%±1.7% | 2770 ± 550 | 1.8 to 3.7 | 480 | could not be identified | 69.3 ± 30.4^+ min | 30 to 60 | 48.0 ± 15.5^+ min | 630 ± 290 (≈ 388 µg/mL) | 4620 ± 830 (≈ 2840 µg/mL) | 8160 ± 440 (≈ 5020 µg/mL) | CCOC(=O)CCN(C(=O)c1ccc2c(c1)nc(CNc1ccc(/C(N)=N/OC(=O)CCC(=O)O)cc1)n2C)c1ccccn1 | solubility in acidic medium [1]: good solubility; hydrolysis of the ester bond in plasma [2]: pronounced hydrolysis of the ester bond; also recorded: very marked ester cleavage; fraction unbound at 15 min [4]: ~0.78; plasma protein binding ([4]; listed as dabigatran amidoxime succinic acid ester (1)): 21.8±5.3%; hydrolysis of the ester bond in plasma [5]: pronounced hydrolysis of the ester bond; also recorded: very marked ester cleavage; stability in acidic medium [6]: rather instable; dabigatran concentration in liver samples compared to other prodrugs [8]: clearly lower; dabigatran detected in liver and kidney [8]: small amounts |
| 4.1 ± 1.4 % | 2760 ± 1060 | 1.7 to 5.5 | 480 | could not be identified | 108.1 ± 56.2^+ min | 30 to 60 | 36.0 ± 12.6 min |  |  |  | Cn1c(CNc2ccc(C(N)=NO)cc2)nc2cc(C(=O)N(CCC(=O)O)c3ccccn3)ccc21 [Dabigatran amidoxime (2)] | plasma protein binding [4]: 31.2±1.3%; solubility ([7]; pH 6.3, 50 mM phosphate buffer): 145 ± 16 µM (≈ 70.7 µg/mL); solubility ([7]; pH 7.4, 50 mM phosphate buffer): 119 ± 5 µM (≈ 58 µg/mL); solubility ([7]; pH 9.0, 50 mM phosphate buffer): 111 ± 8 µM (≈ 54.1 µg/mL) |
| 7.2%±2.0% | 3480 ± 640 | 2.3 to 4.5 | 480 | could not be identified | 87.7 ± 27.5 min | 30 to 90 | 57.0 ± 22.1 min | 3.6 ± 2 (≈ 2.26 µg/mL) | 0.6 ± 0.4 (≈ 0.377 µg/mL) | 0.4 ± 0.1 (≈ 0.251 µg/mL) | CCCCCCOC(=O)NC(=N)c1ccc(NCc2nc3cc(C(=O)N(CCC(=O)OCC)c4ccccn4)ccc3n2C)cc1 [Dabigatran etexilate] | bioavailability described in the literature [9]: 5-8% |
|  | 240 ± 130 |  |  |  | 58.0 ± 31.1^+ min |  | 105.0 ± 21.2 min |  |  |  | [H]/N=C(/N)c1ccc(NCc2nc3cc(C(=O)N(CCC(=O)O)c4ccccn4)ccc3n2C)cc1 [Dabigatran] | period of detectable plasma levels ([3]; iv, 10 mg/kg): 400 min; bioavailability ([3]; po, 50 mg/kg): 0.3 ± 0.2 % |
